Measurements as given in patent US20060122189A1, “Phenylpiperazine derivatives with a combination of partial dopamine-D2 receptor agonism and serotonin reuptake inhibition” (priority 2004, published 2006).

Assays:
[1] = molecular target: T1, Human dopamine D2,L receptors (Homo sapiens, UniProt P14416); test: Inhibition of forskolin-induced [3H]-cAMP accumulation in CHO-K1 cells; format: cell-based; conditions: cloned human dopamine D2,L receptors; full agonist ε=1, full antagonist ε=0
T1 construct: host or cells: CHO-K1
T1 sequence (P14416 whole entry): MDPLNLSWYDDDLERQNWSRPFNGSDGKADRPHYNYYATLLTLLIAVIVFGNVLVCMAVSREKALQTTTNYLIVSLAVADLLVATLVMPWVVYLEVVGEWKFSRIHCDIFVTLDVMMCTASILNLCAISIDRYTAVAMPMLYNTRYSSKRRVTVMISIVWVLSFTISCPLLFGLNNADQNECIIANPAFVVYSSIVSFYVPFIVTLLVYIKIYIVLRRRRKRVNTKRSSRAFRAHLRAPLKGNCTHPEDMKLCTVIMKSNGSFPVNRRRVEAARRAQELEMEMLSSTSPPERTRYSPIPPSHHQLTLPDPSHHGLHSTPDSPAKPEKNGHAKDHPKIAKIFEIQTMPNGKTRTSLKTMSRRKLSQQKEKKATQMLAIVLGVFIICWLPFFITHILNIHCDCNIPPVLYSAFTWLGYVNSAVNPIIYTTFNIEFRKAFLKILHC
Protocol: Inhibition of Forskolin-Induced [^3H]-cAMP Accumulation
The in vitro functional activity at dopamine-D2 receptors, including the intrinsic activity (E) of the compounds of the invention was measured by their ability to inhibit forskolin-induced [^3H]-cAMP accumulation.
Human dopamine D2,L receptors were cloned in fibroblast cell line CHO-K1′ cells and obtained from Dr. Grandy, Vollum Institute, Portland, Oreg., USA. CHO cells were grown in a Dulbecco's modified Eagle's medium (DMEM) culture medium, supplemented with 10% heat-inactivated fetal calf serum, 2 mM glutamine, 1 mM pyruvate, 5000 units/ml penicillin, 5000 μg/ml streptomycin and 200 μg/ml G-418 at 37° C. in 93% air/7% CO2. For incubation with test compounds, confluent cultures grown in 24 wells plates were used. Each condition or substance was routinely tested in quadruplicate. Cells were loaded with 1 μCi [^3H]-adenine in 0.5 ml medium/well. After 2 hours, cultures were washed with 0.5 ml PBS containing 1 mM of the phosphodiesterase inhibitor isobutylmethylxanthine (IBMX) and incubated for 20 min with 0.5 ml PBS containing 1 mM IBMX and forskolin with or without test compound. After aspiration the reaction was stopped with 1 ml trichloroacetic acid 5% (w/v). […] 0.8 ml Extract was passed over Dowex (50WX-4 200-400 mesh) and aluminumoxide columns, eluted with water and 0.1M imidazole (pH=7.5). Eluates were mixed with 7 ml Insta-gel and radioactivity was counted with a liquid scintillation counter. The conversion of [^3H]-ATP into [^3H]-cAMP was expressed as the ratio in percentage radioactivity in the cAMP fraction as compared to combined radioactivity in both cAMP and ATP fractions, and basal activity was subtracted to correct for spontaneous activity.
Test compounds were obtained as 10 mM stock solutions in 100% DMSO, and diluted in PBS/IBMX to final concentrations. Typically, compounds were used in concentrations that ranged from 10^−10M to 10^−5M. From quadruplicate data counts, the mean was taken as an estimate for drug-induced, receptor-mediated effects at specified second messenger accumulation, expressed as percentage of control values (forskolin-stimulated cAMP accumulation, subtracted by basal activity). By using the non-linear curve-fitting program INPLOT or the Excel-add-in XL-Fit, mean values were plotted against drug concentration (in molar) and a sigmoid curve (four-parameter logistic curve) was constructed. The maximal forskolin-induced stimulated conversion is taken as maximum value and the maximal inhibition (usually at drug concentrations 10^−4 M or 10^−5 M) as minimum and these values were fixed during the fitting process. Thus, concentrations of the compound, causing 50% of the maximally obtained inhibition of forskolin-induced cAMP accumulation (EC50), are averaged over several experiments and presented as mean pEC50±SEM. Antagonist potency is assessed by co-incubating cells with a fixed agonist concentration and specified antagonist concentrations. Curve fitting procedures are identical to those used for estimating EC50 values. Thus IC50 values, i.e. the concentration that is able to achieve 50% of maximal antagonism that can be achieved by this compound. IC50 values are corrected using a Cheng-Prussoff equation, correcting it for agonist concentration and EC50 values that is obtained in the same experiment. Thus, Kb=IC50/(1+[agonist]/EC50, agonist). The corresponding pA2 value is −log (Kb). Concentration-response curve fitting allows estimation of pEC50 values and of maximal achievable effect (intrinsic activity or efficacy (ε). A full receptor agonist has ε=1, a full receptor antagonist has ε=0, and a partial receptor agonist has an intermediate intrinsic activity.

serotonin reuptake sites = molecular target: T2, serotonin reuptake sites (Rattus norvegicus, UniProt P31652); test: In vitro affinity for serotonin reuptake sites ([3H]-paroxetine binding); conditions: read-out: 5-HT reuptake binding pKi (converted)
T2 construct: from tissue
T2 sequence (P31652 whole entry): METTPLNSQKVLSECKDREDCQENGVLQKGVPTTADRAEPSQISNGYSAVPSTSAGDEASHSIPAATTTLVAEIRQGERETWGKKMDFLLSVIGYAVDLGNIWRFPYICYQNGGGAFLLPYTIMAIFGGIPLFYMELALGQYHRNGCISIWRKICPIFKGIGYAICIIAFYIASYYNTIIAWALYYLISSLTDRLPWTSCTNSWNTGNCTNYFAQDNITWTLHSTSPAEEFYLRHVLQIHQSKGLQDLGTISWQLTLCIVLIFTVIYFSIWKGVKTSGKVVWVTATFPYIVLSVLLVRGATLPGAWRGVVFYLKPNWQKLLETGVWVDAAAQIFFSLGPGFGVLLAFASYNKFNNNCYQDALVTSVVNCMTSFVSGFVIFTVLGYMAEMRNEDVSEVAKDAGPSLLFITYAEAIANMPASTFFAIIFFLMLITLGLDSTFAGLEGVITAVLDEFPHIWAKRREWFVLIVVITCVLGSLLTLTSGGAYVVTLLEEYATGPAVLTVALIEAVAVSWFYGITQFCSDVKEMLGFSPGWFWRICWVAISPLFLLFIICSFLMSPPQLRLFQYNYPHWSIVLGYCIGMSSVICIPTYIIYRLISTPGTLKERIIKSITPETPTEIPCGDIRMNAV
Protocol: In Vitro Affinity for Serotonin Reuptake Sites
Affinity of the compounds for serotonin reuptake sites was determined using the receptor binding assay described by E. Habert et al.,: “Characterisation of [^3H]-paroxetine binding to rat cortical membranes”, Eur. J. Pharmacol., 118, 107-114, 1985.

Row | SMILES | Dopamine-D2 cAMP accum ε (intrinsic activity) [1] | Ki (serotonin reuptake sites) | melting point
1 | Cn1c(=O)oc2c(N3CCN(CCCCc4csc5ccc(C#N)cc45)CC3)cccc21 [Compound 94] | 0.70 | 3.16 nM | 184 to 186 °C
2 | N#Cc1ccc2occ(CCCCN3CCN(c4cccc5[nH]c(=O)oc45)CC3)c2c1 [Compound 6] | 0.85 | 0.158 nM | 180 to 182 °C
3 | O=c1[nH]c2cccc(N3CCN(CCCc4csc5ccc(Cl)cc45)CC3)c2o1 [Compound 7] | 0.39 | 3.16 nM | 211 to 213 °C
4 | O=c1[nH]c2cccc(N3CCN(CCCCn4ccc5ccc(F)cc54)CC3)c2o1 [Compound 16] | 0.73 | 0.794 nM | 143 to 145 °C
5 | O=c1[nH]c2cccc(N3CCN(CCCc4csc5ccc(F)cc45)CC3)c2o1 [Compound 8] | 0.10 | 1.26 nM | 193 to 195 °C
6 | Cn1c(=O)oc2c(N3CCN(CCC#Cc4ccc5ccc(F)cc5c4)CC3)cccc21 [Compound 135] | 0.45 | 2 nM | –
